Reference: paper PMC9395488, “First-in-human study of IM156, a novel potent biguanide oxidative phosphorylation (OXPHOS) inhibitor, in patients with advanced solid tumors” (Investigational New Drugs, 2022)

System: patients with advanced solid tumors
Assay: First-in-human phase 1 dose-escalation study: safety, DLTs, adverse events
Assay type: in vivo
Text: This multicenter first-in-human dose-escalation phase 1 study (clinicaltrials.gov identifier: NCT03272256) was designed to determine the MTD or RP2D and to evaluate the safety and tolerability of IM156. Secondary endpoints included PK characteristics, efficacy assessment (objective response rate [ORR], disease control rate [DCR], duration of response [DoR] and progression-free survival [PFS]). Furthermore, exploratory objectives included identification and profiling of IM156 metabolites, evaluations of exploratory PD markers of IM156, and evaluations of any potential relationship between putative biomarkers and safety/efficacy parameters of IM156. The study was conducted in accordance with Good Clinical Practice, the International Council for Harmonisation, and guidelines governing clinical study conduct and the ethical principles originating from the Declaration of Helsinki. The study was approved by each Institutional Review Board and patients provided written informed consent. Patients were enrolled at three sites in South Korea.
The initial dose and schedule of IM156 was chosen based on animal toxicology studies. […] IM156 was administered in the fasted state, with no food for at least 2 h before and 1 h after dosing.
Three DLT-evaluable patients were enrolled at each dose level. If there were no DLTs or other prohibitive adverse events (AEs), the Safety Committee was allowed to recommend escalation to the next highest dose level. If 1 DLT occurred in the first 3 DLT-evaluable patients, enrollment in that cohort was expanded to an additional 3 DLT-evaluable patients; if ≥ 2 DLTs were reported in a cohort, that dose was considered above the MTD.
Safety was assessed through vital signs, weight, laboratory assessments, physical examinations, electrocardiogram, and reporting of AEs as graded by the National Cancer Institute’s Common Terminology Criteria for Adverse Events v4.03 (NCI-CTCAE).
DLTs were defined as the following AEs if they were attributed as related to IM156: asymptomatic grade 4 neutropenia lasting for ≥ 5 days; febrile neutropenia, regardless of grade; grade 4 thrombocytopenia or grade 3 thrombocytopenia with bleeding; any grade ≥ 3 non-hematologic AE (except grade 3 hypertension and grade 3 nausea, vomiting or diarrhea for which proper measures for prevention and treatment were not implemented, and alopecia); blood lactate levels > 5 mmol; grade ≥ 2 AE prohibiting dosing of IM156 for ≥ 21 continuous days except for alterations in serum calcium or phosphorus levels. The safety analysis includes all patients who received at least one dose of study drug.
The safety population was defined as all patients who received at least one dose of IM156. The PK population was not defined in the protocol but included all patients with sufficient PK data to perform adequate PK modeling. The efficacy population included all patients who underwent at least one tumor imaging assessment while receiving IM156. Safety was assessed using descriptive statistics (e.g., DLTs, AEs, laboratory tests, physical examination, 12-lead ECG). The incidence and number of events were reported for the DLTs observed in Cycle 1 per dose group. […] Adverse events and TRAEs were standardized with the System Organ Class and the Preferred Term using the Medical Dictionary for Regulatory Activities v23.0. In addition, TEAEs, serious adverse events (SAEs), TEAE severity, and TEAEs leading to withdrawal were presented by dose group. Efficacy data were to be presented by Waterfall and Swim Lane plots. Time to event endpoints (e.g., DoR, PFS) were determined using Kaplan–Meier estimations with the median value for each endpoint summarized.

[1] = all dose level/grade cells not in own entries

NC(=Nc1ccc(OC(F)(F)F)cc1)N=C(N)N1CCCC1 [IM156]
93%: laboratory AEs considered not related to IM156, percent (of 28 laboratory AEs)
Nine: number of SAEs reported (all doses)
68%: TRAE nausea, percent of patients (all doses, N = 22)
41%: TRAE emesis (vomiting), percent of patients (all doses, N = 22)
7 patients: patients with a TEAE leading to dose interruption (all doses, N = 22)
0: TEAE Abdominal discomfort, dose level/grade cells without event [1] | TEAE Abdominal distension, dose level/grade cells without event [1] | TEAE Abdominal pain upper, dose level/grade cells without event [1] | TEAE Abdominal pain, dose level/grade cells without event [1] | TEAE Akathisia, dose level/grade cells without event [1] | TEAE Alanine aminotransferase increased, dose level/grade cells without event [1] | TEAE Ascites, dose level/grade cells without event [1] | TEAE Aspartate aminotransferase increased, dose level/grade cells without event [1] | TEAE Asthenia, dose level/grade cells without event [1] | TEAE Blood alkaline phosphatase increased, dose level/grade cells without event [1] | TEAE Blood creatinine increased, dose level/grade cells without event [1] | TEAE Blood lactic acid increased, dose level/grade cells without event [1] | TEAE Chest pain, dose level/grade cells without event [1] | TEAE Constipation, dose level/grade cells without event [1] | TEAE Cough, dose level/grade cells without event [1] | TEAE Decreased appetite, dose level/grade cells without event [1] | TEAE Diarrhoea, dose level/grade cells without event [1] | TEAE Dysesthesia, dose level/grade cells without event [1] | TEAE Fatigue, dose level/grade cells without event [1] | TEAE Gamma-glutamyltransferase increased, dose level/grade cells without event [1] | TEAE Gastritis, dose level/grade cells without event [1] | TEAE Gastrointestinal pain, dose level/grade cells without event [1] | TEAE Headache, dose level/grade cells without event [1] | TEAE Hemoptysis, dose level/grade cells without event [1] | TEAE Hyperkalaemia, dose level/grade cells without event [1] | TEAE Hypoalbuminaemia, dose level/grade cells without event [1] | TEAE Hypocalcemia, dose level/grade cells without event [1] | TEAE Ileus, dose level/grade cells without event [1] | TEAE Influenza like illness, dose level/grade cells without event [1] | TEAE Large intestinal obstruction, dose level/grade cells without event [1] | TEAE Lethargy, dose level/grade cells without event [1] | TEAE Nausea, dose level/grade cells without event [1] | TEAE Neutrophil count decreased, dose level/grade cells without event [1] | TEAE Obstruction gastric, dose level/grade cells without event [1] | TEAE Oedema peripheral, dose level/grade cells without event [1] | TEAE Oropharyngeal pain, dose level/grade cells without event [1] | TEAE Pain, dose level/grade cells without event [1] | TEAE Peripheral sensory neuropathy, dose level/grade cells without event [1] | TEAE Platelet count decreased, dose level/grade cells without event [1] | TEAE Pleural effusion, dose level/grade cells without event [1] | TEAE Proctalgia, dose level/grade cells without event [1] | TEAE Pyrexia, dose level/grade cells without event [1] | TEAE Toothache, dose level/grade cells without event [1] | TEAE Vomiting, dose level/grade cells without event [1] | Dose-limiting toxicity (dose level 1, 100 mg QOD oral, 3 patients) | Dose-limiting toxicity (dose level 2, 200 mg QOD oral, 3 patients) | Dose-limiting toxicity (dose level 3, 400 mg QOD oral, 3 patients) | Dose-limiting toxicity (dose level 4, 800 mg QOD oral, 3 patients) | Dose-limiting toxicity (dose level 5, 1,200 mg QOD oral, 3 patients) | Dose-limiting toxicity (dose level 6, 800 mg QD oral, 3 patients) | Dose-limiting toxicity (dose level 7, 1,200 mg QD oral, 4 patients)
not reached: maximum tolerated dose (MTD) (per protocol, 100 to 1,200 mg QOD or QD)
64%: patients in whom nausea and emesis required anti-emetic medications, percent (all doses, N = 22)
46%: TRAE diarrhea, percent of patients (all doses, N = 22)
10: TEAE Vomiting, grade 1 (Total, all dose levels)
2: TEAE Fatigue, grade 1 (Total, all dose levels) | TEAE Hypoalbuminaemia, grade 2 (Total, all dose levels)
3: TEAE Diarrhoea, grade 2 (Total, all dose levels) | TEAE Nausea, grade 3 (Total, all dose levels)
28: number of laboratory AEs (all doses)
18%: TRAE fatigue, percent of patients (all doses, N = 22)
2 to 11 days: days of interruption due to a TEAE, range (all doses)
82%: patients with gastrointestinal (GI) TRAEs, percent (all doses, N = 22)
146: total number of TEAEs reported (all doses, N = 22)
9%: TRAE abdominal pain, percent of patients (all doses, N = 22) | TRAE constipation, percent of patients (all doses, N = 22) | TRAE blood lactate (lactic acid) increased, percent of patients (all doses, N = 22, Grade 1)
22 patients: patients with at least one TEAE (all doses, N = 22)
32%: patients with a TEAE leading to dose interruption, percent (all doses, N = 22)
5: TEAE Nausea, grade 2 (Total, all dose levels) | TEAE Pyrexia, grade 1 (Total, all dose levels)
100%: patients with at least one TEAE, percent (all doses, N = 22)
14 patients: patients in whom nausea and emesis required anti-emetic medications (all doses, N = 22)
14%: Grade 3 nausea (TRAE), percent of patients (all doses, N = 22) | TRAEs grade 3 or higher, percent of patients (all doses, N = 22)
26: laboratory AEs considered not related to IM156 (of 28 laboratory AEs)
19 patients: patients with TRAEs (all doses, N = 22)
800 mg: recommended phase 2 dose (RP2D) (oral, QD)
4: TEAE Fatigue, grade 2 (Total, all dose levels)
86%: patients with TRAEs, percent (all doses, N = 22)
18 patients: patients with gastrointestinal (GI) TRAEs (all doses, N = 22)
3 days: median number of days of interruption due to a TEAE (all doses)
8: TEAE Nausea, grade 1 (Total, all dose levels)
1: TEAE Dysesthesia, grade 1 (Total, all dose levels) | TEAE Gamma-glutamyltransferase increased, grade 2 (Total, all dose levels) | TEAE Gamma-glutamyltransferase increased, grade 3 (Total, all dose levels) | TEAE Gastritis, grade 1 (Total, all dose levels) | TEAE Gastrointestinal pain, grade 1 (Total, all dose levels) | TEAE Gastrointestinal pain, grade 2 (Total, all dose levels) | TEAE Headache, grade 1 (Total, all dose levels) | TEAE Headache, grade 2 (Total, all dose levels) | TEAE Hemoptysis, grade 2 (Total, all dose levels) | TEAE Hyperkalaemia, grade 3 (Total, all dose levels) | TEAE Hypocalcemia, grade 2 (Total, all dose levels) | TEAE Ileus, grade 2 (Total, all dose levels) | TEAE Ileus, grade 3 (Total, all dose levels) | TEAE Influenza like illness, grade 1 (Total, all dose levels) | TEAE Large intestinal obstruction, grade 2 (Total, all dose levels) | TEAE Lethargy, grade 2 (Total, all dose levels) | TEAE Neutrophil count decreased, grade 4 (Total, all dose levels) | TEAE Obstruction gastric, grade 3 (Total, all dose levels) | TEAE Oedema peripheral, grade 2 (Total, all dose levels) | TEAE Oropharyngeal pain, grade 1 (Total, all dose levels) | TEAE Pain, grade 2 (Total, all dose levels) | TEAE Peripheral sensory neuropathy, grade 1 (Total, all dose levels) | TEAE Platelet count decreased, grade 1 (Total, all dose levels) | TEAE Pleural effusion, grade 2 (Total, all dose levels) | TEAE Proctalgia, grade 2 (Total, all dose levels) | TEAE Pyrexia, grade 2 (Total, all dose levels) | TEAE Toothache, grade 1 (Total, all dose levels) | TEAE Vomiting, grade 2 (Total, all dose levels) | SAEs attributed to IM156 (grade 3 nausea at 1,200 mg QOD)
8 patients: patients with SAEs (all doses, N = 22)
